Values of other authors, collected in patent publication US7064109B2, “Pharmaceutical composition based on macrolides for topical application in ophthalmology” (priority 2001, dated 2006).

Tested on: all sensitive microorganisms

Q: For `CC[C@H]1OC(=O)[C@H](C)[C@@H](O[C@H]2C[C@@](C)(OC)[C@@H](O)[C@H](C)O2)[C@H](C)[C@@H](O[C@@H]2O[C@H](C)C[C@H](N(C)C)[C@H]2O)[C@](C)(O)C[C@@H](C)CN(C)[C@H](C)[C@@H](O)[C@]1(C)O` [azithromycin, N-methyl-11-aza-10-deoxo-10-dihydroerythromycin], which “minimum level for eliminating microorganisms” value (conjunctival level) is on record?
A: 0.25 µg/g

Q: What about the minimum inhibitory concentration (minimum concentration for therapeutic effectiveness in the eyes, all sensitive microorganisms) of the same compound?
A: 0.5 µg/g
